Laboratory results: the supplement of paper PMC10307832

Assays:
Assay in all cases: relative viability (nuclei count vs DMSO), 5 days (fraction); higher = more cells survive
[1] = compound: C1CC1C(=O)NC2=NNC3=C2C=CC(=C3)C4=CC(=CC=C4)C(=O)NC5CC5 [XMD13-2] + CS(=O)(=O)N1CCN(Cc2cc3nc(-c4cccc5[nH]ncc45)nc(N4CCOCC4)c3s2)CC1 [Pictilisib] (partner 1 µM)
Outline: (§1)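 Relative viability is defined as nuclei in treated wells over nuclei in vehicle wells. Duplicate plates were run and medians reported. Lung cancer cell lines in 1536-well plates were dosed by pin tool one day after seeding, with one drug or with a fixed anchor-drug dose plus five library-drug doses (not always all listed) in √10 steps, and nuclei were counted after 5 days.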

[2] = compound: Cc1ccc(C(=O)Nc2cccc(C(F)(F)F)c2)cc1Nc1cncc(C(N)=O)c1 [ALW-II-49-7] + Cc1nc(NC(=O)N2CCC[C@H]2C(N)=O)sc1-c1ccnc(C(C)(C)C(F)(F)F)c1 [Alpelisib] (partner 2 µM)
Outline: as §1

[3] = compound: C1CC1C(=O)NC2=NNC3=C2C=CC(=C3)C4=CC(=CC=C4)C(=O)NC5CC5 [XMD13-2] + COc1cccc2cc(-c3nc([C@H]4CC[C@H](C(=O)O)CC4)n4ncnc(N)c34)[nH]c12 [OSI-027] (partner 0.5 µM)
Outline: as §1

[4] = compound: Cc1ccc(C(=O)Nc2cccc(C(F)(F)F)c2)cc1Nc1cncc(C(N)=O)c1 [ALW-II-49-7] + O=C(CCCCCCC(=O)Nc1ccccc1)NO [Vorinostat] (partner 1 µM)
Outline: as §1

Cell Line | relative viability ([1]; first compound 0.05 µM) | relative viability ([1]; first compound 0.1581 µM) | relative viability ([1]; first compound 0.5 µM) | relative viability ([1]; first compound 1.581 µM) | relative viability ([1]; first compound 5 µM) | relative viability ([2]; first compound 0.08 µM) | relative viability ([2]; first compound 0.253 µM) | relative viability ([2]; first compound 0.8 µM) | relative viability ([2]; first compound 2.53 µM) | relative viability ([2]; first compound 8 µM) | relative viability ([3]; first compound 0.05 µM) | relative viability ([3]; first compound 0.1581 µM) | relative viability ([3]; first compound 0.5 µM) | relative viability ([3]; first compound 1.581 µM) | relative viability ([3]; first compound 5 µM) | relative viability ([4]; first compound 0.08 µM) | relative viability ([4]; first compound 0.253 µM) | relative viability ([4]; first compound 0.8 µM) | relative viability ([4]; first compound 2.53 µM) | relative viability ([4]; first compound 8 µM)
Calu-6 | 1.09 | 0.92 | 0.909 | 0.757 | 0.439 | 1.04 | 0.984 | 0.95 | 0.91 | 0.791 |  |  |  |  |  |  |  |  |  | 
ChaGo-K-1 | 0.82 | 0.631 | 0.461 |  | 0.599 |  |  |  |  |  | 0.642 | 0.545 | 0.597 | 0.542 | 0.497 | 0.744 | 0.75 | 0.713 | 0.689 | 0.83
EBC-1 | 0.395 | 0.431 | 0.377 | 0.287 | 0.142 | 0.791 | 0.783 | 0.731 | 0.644 | 0.522 |  |  |  |  |  |  |  |  |  | 
EKVX | 0.476 | 0.401 | 0.434 | 0.42 | 0.388 | 0.929 | 0.78 | 0.868 | 0.685 | 0.802 | 0.832 | 0.68 | 0.78 | 0.682 | 0.863 | 0.407 | 0.747 | 0.734 | 0.678 | 0.636
EMC-BAC-2 | 0.596 | 0.497 | 0.531 | 0.505 | 0.413 | 0.843 | 0.703 | 0.758 | 0.715 | 0.645 | 0.394 | 0.4 | 0.383 | 0.366 | 0.358 | 0.462 | 0.419 | 0.301 | 0.409 | 0.281
EPLC-272H | 0.349 | 0.271 | 0.271 | 0.23 | 0.187 | 0.92 | 0.879 | 1.02 | 1.08 | 1.06 | 0.313 | 0.257 | 0.281 | 0.238 | 0.247 | 0.37 | 0.436 | 0.352 | 0.32 | 0.301
H3255 | 0.589 | 0.525 | 0.485 | 0.526 | 0.445 | 0.828 | 0.743 | 0.73 | 0.403 | 0.511 | 0.705 | 0.536 | 0.589 | 0.564 | 0.549 | 0.925 | 0.804 | 0.813 | 0.735 | 0.686
HARA | 0.372 | 0.394 | 0.493 | 0.314 | 0.23 | 0.904 | 0.883 | 0.844 | 0.834 | 0.987 | 0.661 | 0.438 | 0.43 | 0.446 | 0.636 | 0.608 | 0.597 | 0.634 | 0.594 | 0.58
HCC-15 | 0.766 | 0.721 | 0.778 | 0.712 | 0.467 | 0.901 | 0.931 | 0.949 | 0.907 | 0.845 | 0.765 | 0.723 | 0.733 | 0.546 | 0.484 | 0.913 | 0.807 | 0.916 | 0.802 | 0.893
